In patent publication US11752162B2, “Compounds and compositions for treating solid tumors by intratumoral administration” (Novartis AG, priority 2017, dated 2023):

Experiments:
[1] = Binding efficiency of Compound 15 to aluminum-containing particles (Alhydrogel) in Tris buffer; format: physicochemical
Description: The efficiency of binding of compounds of Formula (A) to aluminum-containing particles, as reflected in the percentage (%) bound to aluminum-containing particles, is a function of the (weight/weight) ratio of aluminum-containing particles to compound and to the final concentration (mg/mL) of compound in suspension with aluminum hydroxide. By way of example, the dependence of binding efficiency on the aluminum-containing particles to compound (w/w) ratio is shown in Table 8, where the final concentration of Compound 15 is fixed at 2 mg/mL and the amount of aluminum hydroxide is varied to obtain the desired ratio. The percentage of Compound 15 bound were obtained as described above in the “Materials and Method”, and the suspensions of Compound 15/Alhydrogel® were prepared in 20 mM Tris buffer (pH 7.4) as described above in “Compound 15/Alhydrogel® Suspensions”.
In addition, for (w/w) ratios of aluminum-containing particles to compound of 1.5:1 and below, the binding efficiency has an apparent pH dependence. The effect of pH on binding efficiency is seen in Table 10, where the binding efficiency of Compound 15 at either a ratio of aluminum hydroxide to Compound 15 (w/w) of 1.5:1 or 2:1 is given shown. The percentage of Compound bound was obtained as described above, although in Tris buffer at differing pH values. The suspensions of Compound 15/Alhydrogel® in Tris buffer at various were prepared as described above in “Compound 15/Alhydrogel® Suspensions”.

[2] = Wistar rat subcutaneous PK, fixed aluminum hydroxide 5 mg/mL (Example 10); format: in vivo
Protocol: The pharmacokinetic properties of Compound 15 were examined in naïve male Wistar rats following: • a) a single 200 μL subcutaneous (s.c.) injection of 600 μg of free form Compound 15 in 100 mM Tris buffer pH 7.4; • b) a single 200 μL subcutaneous (s.c.) injection of 50 μg of Compound 15 adsorbed to aluminum hydroxide at a 1:20 ratio (w/w) of Compound 15 to aluminum hydroxide-Suspension G described below; • and • c) a single 200 μL subcutaneous (s.c.) injection of 600 μg of Compound 15 adsorbed to aluminum hydroxide at a 1:1.7 ratio (w/w) of Compound 15 to aluminum hydroxide-Suspension F described below.
The systemic concentration of Compound 15 was evaluated following a single 200 μL subcutaneous injection of two different dose levels of Compound 15 adsorbed to aluminum hydroxide, where the aluminum hydroxide was at a fixed dose concentration of 5 mg/mL.
In this study, two groups male Wistar rats (n=3 per group) were injected subcutaneously (s.c.) with either 50 μg or 600 μg of Compound 15 absorbed to aluminum hydroxide. An injection volume of 200 μL of Suspension G and Suspension F was used to obtain 50 and 600 μg of Compound 15 absorbed to aluminum hydroxide, respectively. The injection volume of 200 μL per rat was not normalized to body weights of the rats. As described above the Compound 15/aluminum hydroxide ratio for Suspension F was 1:1.7 w/w, while for Suspension G it was 1:20 w/w.
Blood samples (˜100 μL each) were taken serially via saphenous bleed from each rat until 168 h post dose (see Table 9 for sampling schedule). Blood samples were centrifuged to separate plasma and the plasma samples were frozen at −20° C. prior to analysis using LC/MS/MS (as described in Example 5) to obtain the systemic concentrations of Compound 15.

[3] = target: T1, human TLR7 (Homo sapiens, UniProt Q9NYK1); assay: TLR7 reporter gene assay (NF-kB-driven luciferase) in HEK293 cells
T1 sequence (Q9NYK1 27-1049): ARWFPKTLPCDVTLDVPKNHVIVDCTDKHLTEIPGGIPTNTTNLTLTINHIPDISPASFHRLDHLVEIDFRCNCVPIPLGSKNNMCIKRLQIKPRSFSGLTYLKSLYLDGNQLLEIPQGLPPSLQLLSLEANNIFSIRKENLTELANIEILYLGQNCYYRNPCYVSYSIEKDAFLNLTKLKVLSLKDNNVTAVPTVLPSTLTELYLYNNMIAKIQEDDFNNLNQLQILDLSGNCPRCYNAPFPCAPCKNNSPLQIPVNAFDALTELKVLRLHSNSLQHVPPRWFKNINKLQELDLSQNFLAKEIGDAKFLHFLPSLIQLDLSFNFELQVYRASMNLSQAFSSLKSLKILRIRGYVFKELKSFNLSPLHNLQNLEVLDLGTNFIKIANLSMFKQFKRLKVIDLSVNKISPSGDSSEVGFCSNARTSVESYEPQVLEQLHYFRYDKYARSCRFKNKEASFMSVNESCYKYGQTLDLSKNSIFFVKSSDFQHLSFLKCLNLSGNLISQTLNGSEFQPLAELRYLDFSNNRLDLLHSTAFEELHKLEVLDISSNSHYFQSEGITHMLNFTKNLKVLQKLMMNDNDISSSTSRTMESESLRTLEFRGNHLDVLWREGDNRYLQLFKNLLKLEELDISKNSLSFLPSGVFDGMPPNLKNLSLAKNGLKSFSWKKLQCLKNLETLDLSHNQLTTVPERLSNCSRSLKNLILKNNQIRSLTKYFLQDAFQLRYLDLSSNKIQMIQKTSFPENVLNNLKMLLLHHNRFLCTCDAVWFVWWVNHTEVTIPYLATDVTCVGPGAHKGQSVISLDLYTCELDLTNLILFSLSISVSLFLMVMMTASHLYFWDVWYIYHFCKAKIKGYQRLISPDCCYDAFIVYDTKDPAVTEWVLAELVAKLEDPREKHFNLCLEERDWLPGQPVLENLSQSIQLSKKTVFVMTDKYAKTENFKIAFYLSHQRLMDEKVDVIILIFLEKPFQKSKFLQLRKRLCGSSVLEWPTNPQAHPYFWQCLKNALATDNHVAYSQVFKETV

[4] = Compound 15 2 mg/mL, aluminum 0.2 mg/mL, ratio 0.1:1, 20 mM Tris pH 7.4
[5] = Compound 15 2 mg/mL, aluminum 4 mg/mL, ratio 2:1, 20 mM Tris pH 7.4
[6] = rat, sc, 600 ug, 600 μg Compound 15 s.c., male Wistar rats, plasma, Table 15 (free compound data from Example 9)

Compound 15 % Bound [1, 4]: 12.5% | Compound 15 % Free [1, 4]: 87.5% | Compound 15 % Bound ([1]; Compound 15 2 mg/mL, aluminum 0.5 mg/mL, ratio 0.25:1, 20 mM Tris pH 7.4): 25.7% | Compound 15 % Free ([1]; Compound 15 2 mg/mL, aluminum 1 mg/mL, ratio 0.5:1, 20 mM Tris pH 7.4): 56.5% | Compound 15 % Bound [1, 5]: 99.7% | Compound 15 % Free [1, 5]: 0.3% | Compound 15 % Bound ([1]; aluminum hydroxide:Compound 15 ratio (w/w) 1.5:1, Tris buffer pH 8): 91.1% | Compound 15 % Bound ([1]; aluminum hydroxide:Compound 15 ratio (w/w) 2:1, Tris buffer pH 7.5): 99.7% | retention of Compound 15 at the local injection site ([2]; adsorbed onto aluminum hydroxide, following subcutaneous injection, rats): up to 1 week | AUC(0-inf) [2, 6]: 2560 ng·h/mL | Cmax [2, 6]: 3660 ng/mL | Tmax [2, 6]: 0.25 h | half-life [2, 6]: 2.1 h | EC50 [3]: 96 nM
SMILES: Cc1cc(OCCOCCC(F)(F)P(=O)(O)O)ccc1CCc1cnc2c(N)nc3cc(CCC(=O)O)ccc3c2c1 [Compound 15, 3-(5-amino-2-(4-(2-(3,3-difluoro-3-phosphonopropoxy)ethoxy)-2-methylphenethyl)benzo[f][1,7]naphthyridin-8-yl)propanoic acid]
